From the NIST ThermoML archive (doi:10.1016/j.jct.2016.10.031)

Assay: molar heat capacity at constant pressure
Conditions: 101.33 kPa, Small (less than 1 g) adiabatic calorimetry

CC(C)(C)c1ccc(Oc2ccc([N+](=O)[O-])cc2)cc1 [1-(tert-butyl)-4-(4-nitrophenoxy)benzene]
molar heat capacity at constant pressure [J/K/mol]
Conditions	Crystal	Glass
88.13 K	121.72	–
88.7 K	–	125.63
88.93 K	122.72	–
89.5 K	–	126.55
89.73 K	123.64	–
90 K	123.8	–
90.3 K	–	127.29
90.54 K	124.63	–
91.1 K	–	128.38
91.34 K	125.55	–
91.91 K	–	129.29
92.15 K	126.55	–
92.71 K	–	130.12
92.95 K	127.29	–
93.52 K	–	131.12
93.75 K	128.13	–
94.32 K	–	132.03
94.56 K	129.21	–
95.13 K	–	132.87
95.36 K	130.12	–
95.93 K	–	133.7
96.17 K	131.04	–
96.73 K	–	134.69
96.97 K	132.03	–
97.54 K	–	135.44
97.77 K	132.87	–
98.34 K	–	136.44
98.58 K	133.78	–
99.14 K	–	137.35
99.38 K	134.61	–
99.95 K	–	138.35
100 K	135.53	–
100.19 K	135.53	–
100.75 K	–	139.43
100.99 K	136.44	–
101.55 K	–	140.18
101.79 K	137.27	–
102.35 K	–	141.01
102.59 K	138.27	–
103.16 K	–	142.01
103.4 K	139.18	–
103.96 K	–	142.76
104.2 K	140.1	–
104.76 K	–	143.67
105 K	141.18	–
105.56 K	–	144.67
105.8 K	141.93	–
106.36 K	–	145.42
106.6 K	142.84	–
107.16 K	–	146.17
107.4 K	143.67	–
107.96 K	–	147.25
108.21 K	144.51	–
108.77 K	–	148.25
109.01 K	145.5	–
109.57 K	–	149
109.81 K	146.25	–
110 K	146.42	–
110.37 K	–	149.83
110.61 K	147.17	–
111.17 K	–	150.74
111.42 K	148.08	–
111.97 K	–	151.66
112.22 K	149	–
112.78 K	–	152.74
113.02 K	149.74	–
113.58 K	–	153.57
113.82 K	150.57	–
114.38 K	–	154.32
114.63 K	151.57	–
115.18 K	–	155.23
115.43 K	152.57	–
115.99 K	–	156.23
116.23 K	153.24	–
116.79 K	–	156.89
117.04 K	154.32	–
117.59 K	–	157.81
117.84 K	155.15	–
118.4 K	–	158.72
118.64 K	155.98	–
119.2 K	–	159.8
119.45 K	156.81	–
120 K	157.31	160.64
120.25 K	157.89	–
120.81 K	–	161.47
121.06 K	158.56	–
121.61 K	–	162.22
121.86 K	159.64	–
122.41 K	–	163.13
122.66 K	160.3	–
123.21 K	–	164.21
123.47 K	161.22	–
124.02 K	–	164.88
124.27 K	162.13	–
124.82 K	–	165.96
125.07 K	162.96	–
125.62 K	–	166.54
125.87 K	163.79	–
126.42 K	–	167.37
126.68 K	164.71	–
127.23 K	–	168.2
127.48 K	165.54	–
128.03 K	–	169.2
128.28 K	166.54	–
128.83 K	–	170.03
129.09 K	167.45	–
129.63 K	–	170.95
129.89 K	168.2	–
130 K	168.2	–
130.43 K	–	171.94
130.69 K	169.03	–
131.24 K	–	172.53
131.49 K	170.03	–
132.04 K	–	173.27
132.3 K	170.86	–
132.84 K	–	174.35
133.1 K	171.69	–
133.64 K	–	175.19
133.9 K	172.77	–
134.44 K	–	176.02
134.71 K	173.61	–
135.25 K	–	176.93
135.51 K	174.44	–
136.05 K	–	177.85
136.31 K	175.1	–
136.85 K	–	178.76
137.11 K	176.02	–
137.65 K	–	179.76
137.92 K	176.85	–
138.45 K	–	180.67
138.72 K	177.93	–
139.25 K	–	181.5
139.52 K	178.68	–
140 K	179.01	–
140.06 K	–	182.42
140.32 K	179.43	–
140.86 K	–	183.25
141.12 K	180.26	–
141.66 K	–	184
141.93 K	181.34	–
142.46 K	–	184.83
142.72 K	181.92	–
143.25 K	–	185.83
143.53 K	182.83	–
144.06 K	–	186.66
144.33 K	183.83	–
144.86 K	–	187.57
145.13 K	184.75	–
145.66 K	–	188.41
145.93 K	185.66	–
146.46 K	–	189.32
146.73 K	186.49	–
147.26 K	–	190.15
